{"source": "patent US20250356959A1", "about": "“Toxicity Prediction Of Compounds In Cellular Structures” (Sanofi, priority 2022, published 2025)", "origin": "cited, not measured here", "test_system": "liver cells", "conditions": "positive control, 60 micro moles"}
{"compound": "CN(C)CCCN1c2ccccc2Sc2ccc(Cl)cc21", "note": "[CPZ, Chlorpromazine]", "values": [{"measurement": "known toxic effect of reference compound", "result": "toxic to liver cells and triggers cholestasis"}]}
